Patent US6653081B2, “Methods for monitoring antiretroviral therapy and guiding therapeutic decision in the treatment of HIV/AIDS” (ViroLogic, Inc., priority 2000, dated 2003)

Tests used:
RTV-V241S = assay: Phenotypic susceptibility assay, RTV-V241S; assay type: cell-based, HIV-1; details: site-directed V241S alone
Excerpt: (§1) The resistance test vectors containing a functional luciferase gene cassette were constructed and host cells were transfected with the resistance test vector DNA. The resistant test vectors contained patient-derived reverse transcriptase and protease sequences that were either susceptible or resistant to the antiretroviral agents, such as nucleoside reverse transcriptase inhibitors, (NRTIs) non-nucleoside reverse transcriptase inhibitors […] protease inhibitors. The resistance test vector viral particles produced by transfecting the resistance test vector DNA into host cells, either in the presence or absence of PRIs, were used to infect target host cells grown either in the absence of NRTIs or NNRTIs, or in the presence of increasing concentrations of the drug. The amount of luciferase activity produced in infected target host cells in the presence of varying concentrations of drug was compared to the amount of luciferase produced in infected target host cells in the absence of drug. “Drug resistance” was measured as the amount of drug required to inhibit by 50% the luciferase activity detected in the absence of drug (inhibitory concentration 50%, IC50). The IC50 values were determined by plotting percent drug inhibition vs. log10 drug concentration. Stimulation of viral replication was measured as the percent increase in luciferase activity detected when infection occurs in the presence of drug as compared to in the absence of drug.
(§2) Host cells were seeded in 10-cm-diameter dishes and were transfected several days after plating with resistance test vector plasmid DNA and the envelope expression vector. Transfections were performed using a calcium-phosphate precipitation procedure. The cell culture media containing the DNA precipitate was replaced with fresh medium, from one to 24 hours, after transfection. Cell culture media containing resistance test vector viral particles was harvested one to four days after transfection and was passed through a […] filter before being used to infect target host cells, or being stored at −80° C. HIV capsid protein (p24) levels in the harvested cell culture media were determined by an EIA method as described by the manufacturer (SAIC; Frederick, Md.). Before infection, target cells (293 and 293/T) were plated in cell culture media. Control infections were performed using cell culture media from mock transfections (no DNA) or transfections containing the resistance test vector plasmid DNA without the envelope expression plasmid. One to three or more days after infection, the media was removed and cell lysis buffer (Promega) was added to each well. Cell lysates were assayed for luciferase activity (FIG. 3). The inhibitory effect of the drug was determined using the following equation:
(§3) % luciferase inhibition=1−(RLUluc[drug]÷RLUluc)×100
(§4) where RLUluc [drug] is the Relative Light Unit of luciferase activity in infected cells in the presence of drug, and RLUluc is the Relative Light Unit of luciferase activity in infected cells in the absence of drug. IC50values were obtained from the sigmoidal curves that were generated from the data by plotting the percent inhibition of luciferase activity vs. the log10 drug concentration. The percent luciferase stimulation is the negative of the % inhibition calculated using the formula above.
A resistance test vector containing all of the mutations present in RTV-011073 except for the V241S and the T277K was constructed and tested using the phenotypic assay described earlier. The results were compared to those determined using the parent RTV-011073. We determined the pattern of phenotypic susceptibility to the NNRTIs, delavirdine, nevirapine and efavirenz, in the reverted vector RTV-011073/241V/277T. […] A resistance test vector containing all of the mutations present in RTV-011073 except for the V241S was constructed and tested using the phenotypic assay described earlier. The results were compared to those determined using the parent RTV-011073. […]

[1] = system: RTV-1033-3/283L/284R/286T/293V/297E; assay: Phenotypic susceptibility assay, RTV-1033-3/283L/284R/286T/293V/297E; assay type: cell-based, HIV; details: RTV-1033-3 with L283I, R284K, T286A, V293I and E297K reverted
Excerpt: as §1, §2, §3, §4
A resistance test vector containing all of the mutations present in RTV-1033-3 except for L283I, R284K, T286A, V293I and E297K (RTV-1033-3/283L/284R/286T/293V/297E) was constructed and tested using the phenotypic assay described earlier. The results were compared to those determined using the parent RTV-1033-3. We determined the pattern of phenotypic susceptibility to the NNRTIs, delavirdine, nevirapine and efavirenz, in the reverted vector, RTV-1033-3/283L/284R/286T/293V/297E.

RTV-1046 and RTV-887 = assay: Phenotypic susceptibility assay, RTV-1046 and RTV-887; assay type: cell-based, HIV; details: patient ARG-014, weeks 8 and 16; Y181C and M230L present
Excerpt: (§5) The resistance test vectors containing a functional luciferase gene cassette were constructed and host cells were transfected with the resistance test vector DNA. The resistant test vectors contained patient-derived reverse transcriptase and protease sequences that were either susceptible or resistant to the antiretroviral agents, such as nucleoside reverse transcriptase inhibitors, (NRTIs) non-nucleoside reverse transcriptase inhibitors […] protease inhibitors. The resistance test vector viral particles produced by transfecting the resistance test vector DNA into host cells, either in the presence or absence of PRIs, were used to infect target host cells grown either in the absence of NRTIs or NNRTIs, or in the presence of increasing concentrations of the drug. The amount of luciferase activity produced in infected target host cells in the presence of varying concentrations of drug was compared to the amount of luciferase produced in infected target host cells in the absence of drug. […] The IC50 values were determined by plotting percent drug inhibition vs. log10 drug concentration. Stimulation of viral replication was measured as the percent increase in luciferase activity detected when infection occurs in the presence of drug as compared to in the absence of drug.
(§6) Host cells were seeded in 10-cm-diameter dishes and were transfected several days after plating with resistance test vector plasmid DNA and the envelope expression vector. […] HIV capsid protein (p24) levels in the harvested cell culture media were determined by an EIA method as described by the manufacturer (SAIC; Frederick, Md.). […] The inhibitory effect of the drug was determined using the following equation: […]
(§7) where RLUluc [drug] is the Relative Light Unit of luciferase activity in infected cells in the presence of drug, and RLUluc is the Relative Light Unit of luciferase activity in infected cells in the absence of drug. […] The percent luciferase stimulation is the negative of the % inhibition calculated using the formula above. […]

RTV-309-3 = assay: Phenotypic susceptibility assay, RTV-309-3; assay type: cell-based, HIV; details: single clone from the RTV-309 pool
Excerpt: as §5, §6, §7

RTV-013522 = assay: Phenotypic susceptibility assay, RTV-013522; assay type: cell-based, HIV; details: patient 013522; for decrease in susceptibility: K103N, I135T, I270S
Excerpt: as §1, §2, §3, §4
A resistance test vector was constructed as described in Example 1 from a virus sample obtained from patient 013522. The prior and current treatment regimens are unknown. Isolation of viral RNA and RT/PCR was used to generate a patient derived segment (PDS) that comprised viral sequences coding for all of PR and aa 1-313 of RT from all three samples. The PDS were inserted into an indicator gene viral vector to generate a resistance test vector designated RTV-013522. RTV-013522 was then tested in a phenotypic assay to determine accurately and quantitatively the level of susceptibility to a panel of anti-retroviral drugs. […]

RTV-K103N/I135T = assay: Phenotypic susceptibility assay, RTV-K103N/I135T; assay type: cell-based, HIV-1; details: site-directed K103N + I135T
Excerpt: as §1, §2, §3, §4
A resistance test vector containing two mutations, K103N and I135T (RTV-K103N/I135T) was constructed and tested in the phenotypic assay described earlier. The results were compared to those determined using a genetically defined resistance test vector that was wild type at position 103 and 135. We determined the pattern of phenotypic susceptibility to the NNRTIs, delavirdine, nevirapine and efavirenz, in RTV-K103N/I135T.

| SMILES | drug-dependent stimulation of viral replication (RTV-V241S) | reductions in susceptibility compared to wild type control RTV (RTV-V241S) | drug-dependent stimulation of viral replication [1] | reductions in susceptibility compared to wild type control RTV [1] | decrease in susceptibility (RTV-1046 and RTV-887) | reduction in susceptibility (RTV-309-3) | drug-dependent stimulation of viral replication (RTV-013522) | decrease in susceptibility (RTV-013522) | drug-dependent stimulation of viral replication (RTV-K103N/I135T) | reductions in susceptibility compared to wild type control RTV (RTV-K103N/I135T) |
| --- | --- | --- | --- | --- | --- | --- | --- | --- | --- | --- |
| Cc1ccnc2c1NC(=O)c1cccnc1N2C1CC1 [nevirapine] | ~30% | 9 fold | no drug-dependent stimulation | 144 fold | > 600 fold | 3 fold | ~90% | > 600 fold | no drug-dependent stimulation | 171 fold |
| CC(C)Nc1cccnc1N1CCN(C(=O)c2cc3cc(NS(C)(=O)=O)ccc3[nH]2)CC1 [delavirdine] | ~25% | 6 fold | no drug-dependent stimulation | 16 fold | > 250 fold | wild type pattern of susceptibility | ~110% | > 250 fold | no drug-dependent stimulation | 121 fold |
| O=C1Nc2ccc(Cl)cc2[C@@](C#CC2CC2)(C(F)(F)F)O1 [efavirenz] | no drug-dependent stimulation | 3 fold | no drug-dependent stimulation | 5 fold | 5 fold | wild type pattern of susceptibility | ~100% | > 450 fold | no drug-dependent stimulation | 80 fold |
